Measurements from patent EP3593822A1, “THERAPEUTIC AND DIAGNOSTIC APPLICATIONS OF A NEW METHOD OF MONITORING OF NEUROGLIAL INTERACTION MEMRI)” (Theranexus, priority 2018, dated 2020).
Where a name gives a salt, the structure may show the parent alone.

Biological target: T1, Cx43 (Mus musculus, UniProt P23242)
T1 construct: from tissue; host or cells: brain of living wild-type C57BL/6 male mice (in vivo)
Test: Manganese-enhanced MRI (MEMRI) of mouse brain after administration of connexin modulators
Format: in vivo, wild-type C57BL/6 male mice
Settings: for T1-w signal intensity (% of control): 1 mg/kg i.p. 2.5h before imaging, 24h after MnCl2 50 mg/kg i.p., mean ± SEM; for increase of T1-w signal intensity: n=6, change versus control, 1 mg/kg i.p.
Description: The MRI measurements were performed on 42 wild-type C57BL/6 male mice. All mice weighed between 25 and 35 g. Mice were housed 4-5 per cage under standard conditions (12/12 h light-dark cycle, light on at 7 am, 22 ± 1°C ambient temperature, 60% relative humidity). This work was carried out in accordance with the Policies of the French Committee of Ethics. Animal surgery and experimentations conducted in this study were authorized by the French Direction of Veterinary Services and all efforts were made to improve animal welfare and minimize animals suffering.
All animals were injected intraperitoneally with MnCl2 50 mg/kg. Animals received an injection of treatment (or saline) 24h after the MnCl2 administration, and were imaged 2.5h later.
The mice were anesthetized with 0.5-1.0% isoflurane in air throughout the experiments. The respiration rate was monitored and the body temperature was maintained at 36.5 °C using an MR-compatible, feedback-controlled air heating system (model 1025; SA Instruments, NY). A capillary filled with 100 µM MnCl2 was placed on the head, inside the RF coil, and was used as signal intensity reference.
The T1-weighted images were acquired using a 3D rapid acquisition with relaxation enhancement (RARE) sequence: RARE factor 4, repetition time/echo time = 250 ms / 6 ms, 4 averages. For T1 relaxation time measurements, a true fast Imaging with Steady-state free Precession (trueFISP) sequence was used with the following acquisition parameters: repetition time/echo time = 3.66/1.83 ms, flip angle = 10, inversion time = 80 ms, number of inversion times = 60, 2 averages.
The position of the brain image was co-registered to a template using SPM8 software (Welcome Trust Center for Neuroimaging, UK). The template image was co-registered to mouse brain atlas (Paxinos and Franklin's the Mouse Brain in Stereotaxic Coordinates 3rd Edition). T1-weighted signals were normalized using the signal intensity from the reference tube. T1 maps were calculated as described previously elsewhere (74). Eighteen regions of interest (ROIs) were defined using the mouse brain atlas.
The averaged T1-weighted signals and T1 values were calculated using an in house written Matlab program. To compensate for differences in coil sensitivity between left and right channels we calculated the signal intensities in ROIs drawn in the left and right cerebral cortex, including the somatosensory cortex and insular cortex, (ROIcortex_left ROIcortex_right). The averaged T1-weighted signal intensity on the left side (SIleft) was then corrected following the equation: SIleft_corrected = SIleft × SIcortex_right /SIcortex_left [formula]
Statistical analyses were performed using GraphPad Prism version 7.0c. Data were analyzed using Mann-Whitney non-parametric test, paired t test or one sample t test compared to the hypothetical value 1 or 100 as appropriate. In each experiment, a level of p<0.05 was accepted as evidence for a statistically significant effect. * p<0.05; ** p<0.01; *** p<0.001. Response of the MEMRI signal after drugs administration are expressed as means ± SEM of percent of control. The remaining data are expressed as mean ± SEM.
For all, MEMRI signals are expressed as percentage of control. Statistical significances are based on the comparison to the hypothetical value 100%.

[1] = LPB = Lateral parabrachial nucleus
[2] = mPFC = Medial prefrontal cortex

T1 sequence (P23242 2-382 limits assumed): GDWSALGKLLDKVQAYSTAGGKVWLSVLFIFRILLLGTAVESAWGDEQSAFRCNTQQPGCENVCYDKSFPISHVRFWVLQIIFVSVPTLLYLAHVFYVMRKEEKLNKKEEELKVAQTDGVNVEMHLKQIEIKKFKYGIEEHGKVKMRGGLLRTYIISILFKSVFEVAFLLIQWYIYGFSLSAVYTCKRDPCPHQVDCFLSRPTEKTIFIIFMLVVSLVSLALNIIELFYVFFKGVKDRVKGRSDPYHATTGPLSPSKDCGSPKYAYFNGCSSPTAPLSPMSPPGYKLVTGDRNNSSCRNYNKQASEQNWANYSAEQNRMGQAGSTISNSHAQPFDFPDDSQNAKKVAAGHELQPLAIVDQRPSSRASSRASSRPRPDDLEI

Row | T1-w signal intensity (% of control) (DRa = Dorsal raphe pallidus) | T1-w signal intensity (% of control) (Hyp = Hypothalamus) | T1-w signal intensity (% of control) (LC = Locus coeruleus) | T1-w signal intensity (% of control) [1] | increase of T1-w signal intensity (olfactory bulb) | increase of T1-w signal intensity (substantia nigra) | T1-w signal intensity (% of control) (AC = Auditory cortex) | T1-w signal intensity (% of control) (Cg = Cingulate cortex) | T1-w signal intensity (% of control) (Cpu = Caudate putamen) | T1-w signal intensity (% of control) (Hip = Hippocampus) | T1-w signal intensity (% of control) (IC = Insular cortex) | T1-w signal intensity (% of control) (MC = Motor cortex) | T1-w signal intensity (% of control) (OB = Olfactory bulb) | T1-w signal intensity (% of control) (OC = Orbital cortex) | T1-w signal intensity (% of control) (PrL = Prelimbic cortex) | T1-w signal intensity (% of control) (SC = Somatosensory cortex) | T1-w signal intensity (% of control) (SN = Substantia nigra) | T1-w signal intensity (% of control) (Sep = Septum) | T1-w signal intensity (% of control) (ThN = Thalamic nuclei) | increase of T1-w signal intensity (hypothalamus) | SMILES | also measured
1 | 113 ± 6.84 % of control | 113 ± 8.39 % of control | 111 ± 7.61 % of control | 111 ± 6.96 % of control | +26.5% | +19,2% |  |  |  |  |  |  |  |  |  |  |  |  |  |  | OC(c1cc(C(F)(F)F)nc2c(C(F)(F)F)cccc12)C1CCCCN1 (centres unmarked) [mefloquine, Mefloquine] | 
2 | 112 ± 5.31 % of control | 118 ± 5.38 % of control | 104 ± 6.23 % of control | 106 ± 6.15 % of control | ~+47.4% | ~+17.9% | 117 ± 5.68 % of control | 127 ± 4.49 % of control | 130 ± 3.90 % of control | 118 ± 4.32 % of control | 128 ± 5.17 % of control | 122 ± 4.61 % of control | 147 ± 4.91 % of control | 138 ± 4.69 % of control | 136 ± 4.41 % of control | 120 ± 4.90 % of control | 118 ± 5.67 % of control | 136 ± 3.68 % of control | 120 ± 4.87 % of control | approximately +18.5% | Cc1ccc(Cl)c(Nc2ccccc2C(=O)O)c1Cl [meclofenamic acid] | T1-w signal intensity (% of control) (LPB = Lateral parabrachial nucleus, listed as MFA): 106 ± 6,15 % of control; T1-w signal intensity (% of control) [2]: 136 ± 4.33 % of control
3 | 122 ± 6.86 % of control | 121 ± 7.05 % of control | 119 ± 5.69 % of control | 119 ± 6.07 % of control |  |  | 114 ± 4.04 % of control | 123 ± 5.73 % of control | 120 ± 6.01 % of control | 118 ± 4.73 % of control | 118 ± 5.62 % of control | 122 ± 5.09 % of control | 123 ± 9.21 % of control | 123 ± 8.23 % of control | 121 ± 7.09 % of control | 120 ± 4.88 % of control | 117 ± 6.97 % of control | 119 ± 6.95 % of control | 121 ± 5.47 % of control | ~+20.9% | O=C(NCC1CCCCN1)c1cc(OCC(F)(F)F)ccc1OCC(F)(F)F (centres unmarked) [flecainide, flecainide acetate salt] | increase of T1-w signal intensity (dorsal raphe pallidus): approximately +21.9%; increase of T1-w signal intensity (lateral parabrachial nucleus): ~+19%; increase of T1-w signal intensity (locus coeruleus): ~+19.2%; T1-w signal intensity (% of control) [2]: 121 ± 6.86 % of control
